ChEMBL document CHEMBL1125278, “Novel cerebroprotective agents with central nervous system stimulating activity. 2. Synthesis and pharmacology of the 1-(acylamino)-7-hydroxyindan derivatives” (1991)

Columns and labels:
Format in all cases: functional
[1] = system: Mus musculus; experiment: Spontaneous movement (SMT) in seconds, was measured after oral administration of 30 mg/kg in mice to test for promoting effects on recovery from coma.
[2] = system: Mus musculus; experiment: Time of recovery of righting reflux (RRT) in seconds was measured after oral administration of 30 mg/kg in mice for the promotional effect on recovery from coma.
[3] = system: Mus musculus; experiment: Antihypoxic effect tested by the ratio of survival time (SVT) of test mice to that of control group, dosed orally 30 mg/kg; conditions: route oral
[4] = system: Mus musculus; experiment: Antihypoxic effect tested by the ratio of survival time (SVT) of test mice to that of control group, dosed intraperitoneally at 30 mg/kg; conditions: route intraperitoneal

Cc1cc(C)c(N2CCN(CC(=O)NC3c4c(O)c(C)cc(C)c4CC3(C)C)CC2)c(C)c1 (stereo not drawn)
SMT [1]: 84 s | RRT [2]: 87.6 s | SVT [3]: 100.3%

Cc1cc(C)c2c(c1O)C(NC(=O)CN1CCCC1)C(C)(C)C2 (stereo not drawn)
SMT [1]: 66.4 s | RRT [2]: 85.8 s | SVT [4]: 134.2%

Cc1cc(C)c2c(c1O)C(NC(=O)CN1CCN(c3cccc(Cl)c3)CC1)C(C)(C)C2 (stereo not drawn)
SMT [1]: 128.1 s | RRT [2]: 88.4 s | SVT [4]: 456.6% | SVT [3]: 147.9%

Cc1cc(C)c2c(c1O)C(N)C(c1ccccc1)C2 (stereo not drawn)
SMT [1]: 28.9 s | RRT [2]: 34.3 s | SVT [4]: 185.7% | SVT [3]: 114.1%

CCC(C)c1cc(C)c2c(c1O)C(NC(=O)CN1CCN(c3cccc(C)c3)CC1)CC2 (stereo not drawn)
SMT [1]: 125.1 s | RRT [2]: 91.9 s | SVT [4]: 172.2% | SVT [3]: 110.5%

Cc1cc(C)c2c(c1O)C(NC(=O)CN1CCN(c3cccc(F)c3)CC1)C(C)(C)C2 (stereo not drawn)
SMT [1]: 72.3 s | RRT [2]: 82.8 s | SVT [3]: 122.7%

Cc1cc(C)c2c(c1O)C(NC(=O)CN1CCN(c3ccc(F)cc3)CC1)C(C)(C)C2 (stereo not drawn)
SMT [1]: 121.4 s | RRT [2]: 110.5 s | SVT [3]: 96.2%

CCC(C)c1cc(C)c2c(c1O)C(NC(=O)CN1CCN(c3ccccc3)CC1)CC2 (stereo not drawn)
SMT [1]: 78.2 s | RRT [2]: 80.3 s | SVT [4]: 89.3% | SVT [3]: 85.9%

COc1cccc(N2CCN(CC(=O)NC3c4c(O)c(C)cc(C)c4CC3c3ccc(Cl)cc3)CC2)c1 (stereo not drawn)
SMT [1]: 94.3 s | RRT [2]: 80.1 s | SVT [3]: 91.7%

COc1cccc(N2CCN(CC(=O)NC3c4c(c(C)cc(C)c4OC)CC3(C)C)CC2)c1 (stereo not drawn)
SMT [1]: 61.8 s | RRT [2]: 72.6 s | SVT [3]: 93.4%

Cc1cc(C)c2c(c1O)C(NC(=O)CN1CCOCC1)C(C)(C)C2 (stereo not drawn)
SMT [1]: 92.2 s | RRT [2]: 106.9 s | SVT [4]: 104.3%

Cc1cc(C)c2c(c1O)C(NC(=O)CCN1CCN(c3cccc(Cl)c3)CC1)C(C)(C)C2 (stereo not drawn)
SMT [1]: 74 s | RRT [2]: 95.4 s | SVT [4]: 79.5%

Cc1cc(C)c2c(c1O)C(NC(=O)CN1CCN(c3cc(Cl)ccc3Cl)CC1)C(C)(C)C2 (stereo not drawn)
SMT [1]: 69.4 s | RRT [2]: 73.6 s | SVT [3]: 100%

COc1ccccc1N1CCN(CC(=O)NC2c3c(O)c(C)cc(C)c3CC2(C)C)CC1 (stereo not drawn)
SMT [1]: 117.3 s | RRT [2]: 97.2 s | SVT [3]: 94.4%

COc1cccc(N2CCN(CC(=O)NC3c4c(O)c(C)cc(C)c4CC3c3ccccc3)CC2)c1 (stereo not drawn)
SMT [1]: 80.6 s | RRT [2]: 82 s | SVT [3]: 78.3%

Cc1cc(C)c2c(c1O)C(NC(=O)CN1CCN(c3cc(Cl)cc(Cl)c3)CC1)C(C)(C)C2 (stereo not drawn)
SMT [1]: 71.1 s | RRT [2]: 76.1 s | SVT [3]: 106.4%

CCC(C)c1cc(C)c2c(c1O)C(NC(=O)CN1CCN(c3cccc(OC)c3)CC1)CC2 (stereo not drawn)
SMT [1]: 103.5 s | RRT [2]: 99.1 s | SVT [4]: 218.5% | SVT [3]: 162.3%

COc1ccc(N2CCN(CC(=O)NC3c4c(O)c(C)cc(C)c4CC3(C)C)CC2)cc1 (stereo not drawn)
SMT [1]: 63.1 s | RRT [2]: 82.3 s | SVT [3]: 100.6%

CCC(C)c1cc(C)c2c(c1O)C(NC(=O)CN1CCN(c3cccc(Cl)c3)CC1)C(C)(C)C2 (stereo not drawn)
SMT [1]: 80.3 s | RRT [2]: 99.4 s | SVT [4]: 147.7%

Cc1cc(C)c2c(c1O)C(NC(=O)Cn1ccnc1)C(C)(C)C2 (stereo not drawn)
SMT [1]: 66.4 s | RRT [2]: 76.8 s | SVT [3]: 71.8%

COc1cccc(N2CCN(CCNC3c4c(O)c(C)cc(C)c4CC3(C)C)CC2)c1 (stereo not drawn)
SMT [1]: 112.1 s | RRT [2]: 110 s | SVT [4]: 120.8%

Cc1ccc(Cl)cc1N1CCN(CC(=O)NC2c3c(O)c(C)cc(C)c3CC2(C)C)CC1 (stereo not drawn)
SMT [1]: 74 s | RRT [2]: 91.7 s | SVT [3]: 103.2%

Cc1cc(C)c2c(c1O)C(NC(=O)CN1CCN(c3ccccc3F)CC1)C(C)(C)C2 (stereo not drawn)
SMT [1]: 123.8 s | RRT [2]: 89 s | SVT [3]: 99.9%

Cc1cc(C)c2c(c1O)C(NC(=O)CN1CCN(c3cccc(Cl)c3Cl)CC1)C(C)(C)C2 (stereo not drawn)
SMT [1]: 126.6 s | RRT [2]: 99.2 s | SVT [3]: 94.6%

COc1cccc(N2CCN(CC(=O)NC3CCc4c(C)cc(C)c(O)c43)CC2)c1 (stereo not drawn)
SMT [1]: 54.7 s | RRT [2]: 64.2 s | SVT [3]: 77.2%

Cc1cc(C)c2c(c1O)C(NC(=O)CN1CCN(c3ccc(Cl)c(Cl)c3)CC1)C(C)(C)C2 (stereo not drawn)
SMT [1]: 108.2 s | RRT [2]: 93.2 s | SVT [3]: 100.1%

Cc1cc(C)c2c(c1O)C(NC(=O)CN1CCN(c3cccc(Br)c3)CC1)C(C)(C)C2 (stereo not drawn)
SMT [1]: 91 s | RRT [2]: 81.8 s | SVT [3]: 83.2%

Cc1cc(C)c2c(c1O)C(NCCN1CCN(c3cccc(Cl)c3)CC1)C(C)(C)C2 (stereo not drawn)
SMT [1]: 59.9 s | RRT [2]: 64.8 s | SVT [4]: 141.3%

Cc1cc(C)c2c(c1O)C(NC(=O)CN1CCSCC1)C(C)(C)C2 (stereo not drawn)
SMT [1]: 119.9 s | RRT [2]: 110.8 s | SVT [4]: 100.8%

Cc1ccccc1C1Cc2c(C)cc(C)c(O)c2C1NC(=O)CN1CCN(c2cccc(Cl)c2)CC1 (stereo not drawn)
SMT [1]: 66 s | RRT [2]: 75.1 s | SVT [3]: 123.7%

Cc1cc(C)c2c(c1O)C(NC(=O)CN1CCN(c3cccc(C(F)(F)F)c3)CC1)C(C)(C)C2 (stereo not drawn)
SMT [1]: 83.7 s | RRT [2]: 89.5 s | SVT [3]: 107.8%

Cc1ccc(C(=O)NC2CCc3c(C)cc(C)c(O)c32)cc1 (stereo not drawn)
SVT [4]: 68.8%

COc1cccc(N2CCN(CC(=O)NC3c4c(O)ccc(C)c4CC3(C)C)CC2)c1 (stereo not drawn)
SMT [1]: 64.7 s | RRT [2]: 62.9 s | SVT [3]: 97.2%

Cc1cc(C)c2c(c1O)C(NC(=O)CN1CCCCC1)C(C)(C)C2 (stereo not drawn)
SMT [1]: 84.2 s | RRT [2]: 100.7 s | SVT [4]: 112.7%

Cc1cc(C)c2c(c1O)C(NC(=O)CN1CCN(c3cccc(Cl)c3)CC1)C(c1ccc(Cl)cc1)C2 (stereo not drawn)
SMT [1]: 99.4 s | RRT [2]: 98 s | SVT [3]: 81.3%

Cc1cc(C)c2c(c1O)C(NC(=O)CN1CCN(c3ccccc3Cl)CC1)C(C)(C)C2 (stereo not drawn)
SMT [1]: 77.2 s | RRT [2]: 86.5 s | SVT [3]: 117.3%

CCOc1ccccc1N1CCN(CC(=O)NC2c3c(O)c(C)cc(C)c3CC2(C)C)CC1 (stereo not drawn)
SMT [1]: 71.8 s | RRT [2]: 90.3 s | SVT [3]: 130.4%

COc1cccc(N2CCN(CCC(=O)NC3c4c(O)c(C)cc(C)c4CC3(C)C)CC2)c1 (stereo not drawn)
SMT [1]: 92.4 s | RRT [2]: 98 s | SVT [3]: 91.8%

Cc1cc(C)c2c(c1O)C(NC(=O)CN1CCCC1=O)C(C)(C)C2 (stereo not drawn)
SMT [1]: 88.8 s | RRT [2]: 89.2 s | SVT [4]: 135.3%

Cc1cc(C)c2c(c1O)C(NC(=O)CN1CCCC1C(=O)O)C(C)(C)C2 (stereo not drawn)
SMT [1]: 150.3 s | RRT [2]: 103.3 s | SVT [3]: 92.3%

Cc1cc(C)c2c(c1O)C(NCC(=O)N1CCN(c3cccc(Cl)c3)CC1)C(C)(C)C2 (stereo not drawn)
SMT [1]: 95.2 s | RRT [2]: 116.3 s | SVT [4]: 146.8%

Cc1cc(C)c2c(c1O)C(NC(=O)CN1CCN(c3ccc([N+](=O)[O-])cc3)CC1)C(C)(C)C2 (stereo not drawn)
SMT [1]: 90.6 s | RRT [2]: 99.5 s | SVT [3]: 107.9%

COc1cccc(N2CCN(CC(=O)NC3c4c(O)c(C)cc(C)c4CC3Cc3ccccc3)CC2)c1 (stereo not drawn)
SVT [3]: 123.1%

COc1cccc(N2CCN(C(=O)CNC3c4c(O)c(C)cc(C)c4CC3(C)C)CC2)c1 (stereo not drawn)
SMT [1]: 111 s | RRT [2]: 84 s | SVT [4]: 97.7%

COc1ccc(N2CCN(CC(=O)NC3c4c(O)c(C)cc(C)c4CC3(C)C)CC2)cc1OC (stereo not drawn)
SMT [1]: 81 s | RRT [2]: 59.5 s | SVT [3]: 85.7%

Cc1ccc(N2CCN(CC(=O)NC3c4c(O)c(C)cc(C)c4CC3(C)C)CC2)cc1Cl (stereo not drawn)
SMT [1]: 117.7 s | RRT [2]: 103.9 s | SVT [3]: 90.5%

Cc1cccc(N2CCN(CC(=O)NC3CCc4c(C)cc(C)c(O)c43)CC2)c1C (stereo not drawn)
SVT [4]: 134.3%

CCCc1cc(C)c2c(c1O)C(NC(=O)CN1CCN(c3cccc(OC)c3)CC1)C(C)(C)C2 (stereo not drawn)
SMT [1]: 107.2 s | RRT [2]: 114.6 s | SVT [3]: 95%
